Assay results from ChEMBL document CHEMBL1201862, “PubChem BioAssay data set” (2004).
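These data come from cells grown in 96-well plates and exposed to compound for 48 hours at five concentrations. The concentration for 50% growth inhibition is given as GI50.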 Calls of active or inactive are those of the source. Rule as the data show it: active = GI50 up to about 1.1 µM and inactive = higher.

Key:
Test in all cases: inhibition of tumour cell growth, NCI panel, 48 h
LOX IMVI = test system: LOX IMVI
RXF 393 = test system: RXF 393
HCC 2998 = test system: HCC 2998
OVCAR-3 = test system: OVCAR-3
HCT-116 = test system: HCT-116
RPMI-8226 = test system: RPMI-8226
SF-268 = test system: SF-268
OVCAR-8 = test system: OVCAR-8
KM12 = test system: KM12
SK-MEL-5 = test system: SK-MEL-5
SF-539 = test system: SF-539
MOLT-4 = test system: MOLT-4
EKVX = test system: EKVX
SR = test system: SR
ACHN = test system: ACHN
SK-OV-3 = test system: SK-OV-3
COLO 205 = test system: COLO 205

SMILES | GI50 (LOX IMVI) | GI50 (RXF 393) | GI50 (HCC 2998) | GI50 (OVCAR-3) | GI50 (HCT-116) | GI50 (RPMI-8226) | GI50 (SF-268) | GI50 (OVCAR-8) | GI50 (KM12) | GI50 (SK-MEL-5) | GI50 (SF-539) | GI50 (MOLT-4) | GI50 (EKVX) | GI50 (SR) | GI50 (ACHN) | GI50 (SK-OV-3) | GI50 (COLO 205)
CC(=O)OCC1OC(n2cnc3c(I)nc(I)nc32)C(OC(C)=O)C1OC(C)=O (stereo not given) | 14 µM (inactive) | 17.3 µM (inactive) | 5.21 µM (inactive) | 7.55 µM (inactive) | 4.91 µM (inactive) | 10.9 µM (inactive) | 13.4 µM (inactive) | 10.3 µM (inactive) | 4.48 µM (inactive) | 13.3 µM (inactive) | 16.1 µM (inactive) | 8.13 µM (inactive) | 18.5 µM (inactive) | 3.13 µM (inactive) | 10 µM (inactive) |  | 
Cc1c2ccncc2c(C)c2c1[nH]c1ccc(O)c(OCC(F)(F)F)c12 | 1.38 µM (inactive) |  | 9.42 µM (inactive) | 7.8 µM (inactive) | 2.39 µM (inactive) | 2.1 µM (inactive) | 8.67 µM (inactive) | 3.03 µM (inactive) |  | 5.56 µM (inactive) | 6.05 µM (inactive) | 2.01 µM (inactive) | 10.3 µM (inactive) |  |  | 10.2 µM (inactive) | 11.9 µM (inactive)
CC(C)(C)N/N=C(\Cc1occc(=O)c1O)C(=O)Nc1ccc([N+](=O)[O-])cc1[N+](=O)[O-] | > 100 µM (inactive) | > 100 µM (inactive) |  |  | > 100 µM (inactive) | > 100 µM (inactive) | > 100 µM (inactive) | > 100 µM (inactive) | > 100 µM (inactive) | > 100 µM (inactive) | > 100 µM (inactive) | > 100 µM (inactive) | 66.5 µM (inactive) | > 100 µM (inactive) | > 100 µM (inactive) | > 100 µM (inactive) | > 100 µM (inactive)
CC1(C)C2C=CC1C(=O)CC2 (stereo not given) | > 100 µM (inactive) | > 100 µM (inactive) | > 100 µM (inactive) | > 100 µM (inactive) | > 100 µM (inactive) | > 100 µM (inactive) | > 100 µM (inactive) | > 100 µM (inactive) | > 100 µM (inactive) | > 100 µM (inactive) | > 100 µM (inactive) | > 100 µM (inactive) | > 100 µM (inactive) |  | > 100 µM (inactive) |  | 
CCOC(=O)CCn1[nH]c(=O)c(Cl)c(Cl)c1=O | > 100 µM (inactive) | > 100 µM (inactive) | > 100 µM (inactive) | > 100 µM (inactive) | > 100 µM (inactive) |  | > 100 µM (inactive) | > 100 µM (inactive) |  | > 100 µM (inactive) |  |  | > 100 µM (inactive) |  | > 100 µM (inactive) | > 100 µM (inactive) | > 100 µM (inactive)
COc1ccc(-c2cc(-c3ccco3)c(C#N)c(=O)[nH]2)cc1 | > 100 µM (inactive) | 45.1 µM (inactive) | > 100 µM (inactive) | 22.7 µM (inactive) | 40.3 µM (inactive) | > 100 µM (inactive) | 36.7 µM (inactive) | 36.8 µM (inactive) | > 100 µM (inactive) | > 10 µM (inactive) | 15.8 µM (inactive) | > 100 µM (inactive) | > 100 µM (inactive) |  | 87.5 µM (inactive) | 23.2 µM (inactive) | > 100 µM (inactive)
CC1CCC(C(C)C)C(O[C@@H]2OC(=O)C[C@@H]2Sc2ccccc2)C1 (stereo not given in full) | 13.1 µM (inactive) | 13.4 µM (inactive) | 24.7 µM (inactive) | 14.5 µM (inactive) | 25.9 µM (inactive) | 13.3 µM (inactive) | 24.4 µM (inactive) | 18.9 µM (inactive) | 20.3 µM (inactive) | 16.2 µM (inactive) | 23.5 µM (inactive) | 12 µM (inactive) | 34 µM (inactive) |  | 20 µM (inactive) | 49.8 µM (inactive) | 18.5 µM (inactive)
CCCCCCCCSC(SCCCCCCCC)=C1C(=O)N(c2ccccc2)N=C1C | 17.7 µM (inactive) | 53.5 µM (inactive) | 71.3 µM (inactive) | 29.4 µM (inactive) | 14.8 µM (inactive) | 39.4 µM (inactive) | > 100 µM (inactive) | 35.5 µM (inactive) | 33.7 µM (inactive) | 47 µM (inactive) |  | 28.4 µM (inactive) | 59.3 µM (inactive) | 14.9 µM (inactive) | 35.2 µM (inactive) | 77.3 µM (inactive) | 24.7 µM (inactive)
CC1(C)OCC(C(O)C2OC(C)(C)OC2/C=N\O)O1 (stereo not given) | > 100 µM (inactive) | > 100 µM (inactive) | > 100 µM (inactive) | > 100 µM (inactive) | > 100 µM (inactive) | > 100 µM (inactive) | > 100 µM (inactive) | > 100 µM (inactive) | > 100 µM (inactive) | > 100 µM (inactive) | > 100 µM (inactive) | > 100 µM (inactive) | > 100 µM (inactive) |  | > 100 µM (inactive) | > 100 µM (inactive) | > 100 µM (inactive)
CCC(C)(C)NC1=C(NC(C)=O)C(=O)c2ccccc2C1=O | 29.8 µM (inactive) | 25 µM (inactive) | > 75 µM (inactive) | 34.8 µM (inactive) | 17.7 µM (inactive) |  | > 75 µM (inactive) | 54.8 µM (inactive) | 57.3 µM (inactive) | 13.5 µM (inactive) | 24.4 µM (inactive) | 13.9 µM (inactive) | > 75 µM (inactive) | 31.3 µM (inactive) | 15.2 µM (inactive) | > 75 µM (inactive) | 29.4 µM (inactive)
OCC1=CC(NC2CC(CO)C(O)C(O)C2O)C(O)C(O)C1O (stereo not given) | > 100 µM (inactive) | > 100 µM (inactive) |  | > 100 µM (inactive) | > 100 µM (inactive) | > 100 µM (inactive) |  | > 100 µM (inactive) | > 100 µM (inactive) |  | > 100 µM (inactive) | > 100 µM (inactive) | > 100 µM (inactive) |  | > 100 µM (inactive) | > 100 µM (inactive) | > 100 µM (inactive)
O=C(O/N=C1\CCCC\C1=C/c1ccccc1)c1ccc([N+](=O)[O-])cc1 | > 100 µM (inactive) | > 100 µM (inactive) | > 100 µM (inactive) | 42.1 µM (inactive) | > 100 µM (inactive) | > 100 µM (inactive) | > 100 µM (inactive) | > 100 µM (inactive) |  |  | 41.3 µM (inactive) | > 100 µM (inactive) | > 100 µM (inactive) | > 100 µM (inactive) | 64.4 µM (inactive) | > 100 µM (inactive) | > 100 µM (inactive)
O=C1CCC(c2nc3cc(Cl)ccc3o2)C(=O)N1 (stereo not given) | > 100 µM (inactive) | > 100 µM (inactive) | > 100 µM (inactive) | > 100 µM (inactive) | > 100 µM (inactive) |  | > 100 µM (inactive) | > 100 µM (inactive) | > 100 µM (inactive) | > 100 µM (inactive) | > 100 µM (inactive) | > 100 µM (inactive) | > 100 µM (inactive) | > 100 µM (inactive) | > 100 µM (inactive) | > 100 µM (inactive) | > 100 µM (inactive)
C[C@]12CCC(=O)C=C1CC[C@@H]1[C@@H]2[C@@H](O)C[C@@]2(C)[C@H]1CC[C@]2(O)C(=O)COC(=O)COCC(=O)O | > 100 µM (inactive) |  | > 100 µM (inactive) | > 100 µM (inactive) | > 100 µM (inactive) | > 100 µM (inactive) | > 100 µM (inactive) | > 100 µM (inactive) | > 100 µM (inactive) | > 100 µM (inactive) | > 100 µM (inactive) | > 100 µM (inactive) | > 100 µM (inactive) |  | > 100 µM (inactive) | > 100 µM (inactive) | > 100 µM (inactive)
CCCCCCCCCCCCCCC(O)C1CCC(C(O)CCC(O)CCCCCC(O)CC2=CC(C)OC2=O)O1 (stereo not given) | 1.18 µM (inactive) |  | 2.51 µM (inactive) | 1.13 µM (inactive) | 1.36 µM (inactive) | 0.187 µM (active) | 0.832 µM (active) | 2.07 µM (inactive) |  | 0.0131 µM (active) | 1.3 µM (inactive) | 0.64 µM (active) | 1.93 µM (inactive) |  |  | 4.73 µM (inactive) | 2.43 µM (inactive)
Sc1nnc(COc2ccc(Cl)cc2)o1 |  |  | > 100 µM (inactive) | > 100 µM (inactive) | > 100 µM (inactive) | > 100 µM (inactive) | > 100 µM (inactive) | > 100 µM (inactive) | > 100 µM (inactive) | > 100 µM (inactive) | > 100 µM (inactive) | > 100 µM (inactive) | > 100 µM (inactive) |  | > 100 µM (inactive) | > 100 µM (inactive) | > 100 µM (inactive)
CCOC(=O)CNc1nnnn1C1OC(CO)C(O)C1O (stereo not given) | > 100 µM (inactive) | > 100 µM (inactive) | > 100 µM (inactive) | > 100 µM (inactive) | > 100 µM (inactive) | > 100 µM (inactive) | > 100 µM (inactive) | > 100 µM (inactive) | > 100 µM (inactive) | > 100 µM (inactive) | > 100 µM (inactive) | > 100 µM (inactive) | > 100 µM (inactive) |  | > 100 µM (inactive) | > 100 µM (inactive) | > 100 µM (inactive)
Cn1c(=O)nc2n(-c3ccc(O)cc3)c3ccccc3nc-2c1=O |  |  | 29.9 µM (inactive) | 17.9 µM (inactive) | > 100 µM (inactive) | 63.7 µM (inactive) | 23.2 µM (inactive) | 44.5 µM (inactive) | 55.3 µM (inactive) | 18.7 µM (inactive) | 5.56 µM (inactive) | 54.5 µM (inactive) | > 100 µM (inactive) |  | 2.78 µM (inactive) | > 100 µM (inactive) | 23.9 µM (inactive)
